Numbers after ± are expanded uncertainties.
Tests used:
[1] = Liquid; for viscosity: 101 kPa; for mass density: 101.3 kPa
[2] = xn = mol fraction of the nth substance listed; details: Liquid, x2 = 0; for viscosity: 101 kPa; for mass density: 101.3 kPa

| viscosity ([1]; 298.15 K) | viscosity ([1]; 303.15 K) | viscosity ([1]; 313.15 K) | viscosity ([1]; 323.15 K) | mass density ([1]; 323.15 K) | viscosity ([1]; 333.15 K) | mass density ([1]; 333.15 K) | viscosity ([1]; 343.15 K) | mass density ([1]; 343.15 K) | further results | Structure (SMILES) |
| --- | --- | --- | --- | --- | --- | --- | --- | --- | --- | --- |
| 7.87 ± 0.22 mPa·s | 6.75 ± 0.2 mPa·s | 5.13 ± 0.15 mPa·s | 4.03 ± 0.12 mPa·s | 1124.82 ± 1.2 kg/m3 | 3.25 ± 0.1 mPa·s | 1116.11 ± 1.1 kg/m3 | 2.68 ± 0.08 mPa·s | 1107.39 ± 1.1 kg/m3 | mass density ([1]; 298.15 K): 1146.62 ± 1.2 kg/m3; mass density ([1]; 303.15 K): 1142.26 ± 1.2 kg/m3; mass density ([1]; 313.15 K): 1133.53 ± 1.2 kg/m3 | O=CN1CCOCC1 [N-formylmorpholine] |
| 0.89 ± 0.027 mPa·s | 0.7976 ± 0.025 mPa·s | 0.6531 ± 0.02 mPa·s | 0.547 ± 0.017 mPa·s | 988.04 ± 0.13 kg/m3 | 0.466 ± 0.015 mPa·s | 983.12 ± 0.13 kg/m3 | 0.4049 ± 0.013 mPa·s | 977.77 ± 0.13 kg/m3 |  | O [water] |
|  |  |  |  |  |  |  |  |  | viscosity ([2]; 298.15 K): 0.89 ± 0.027 mPa·s; viscosity ([2]; 303.15 K): 0.7976 ± 0.025 mPa·s; viscosity ([2]; 313.15 K): 0.6531 ± 0.02 mPa·s; viscosity ([2]; 323.15 K): 0.547 ± 0.017 mPa·s; mass density ([2]; 323.15 K): 988.04 ± 0.13 kg/m3; viscosity ([2]; 333.15 K): 0.466 ± 0.015 mPa·s; mass density ([2]; 333.15 K): 983.12 ± 0.13 kg/m3; viscosity ([2]; 343.15 K): 0.4049 ± 0.013 mPa·s; mass density ([2]; 343.15 K): 977.77 ± 0.13 kg/m3 | O [water] + O=CN1CCOCC1 |
